Source: patent US8962608B2, “Cycloalkylnitrile pyrazole carboxamides as janus kinase inhibitors” (Merck Sharp & Dohme Corp., priority 2011, dated 2015)

molecular target: JAK2 (recombinant purified GST-tagged catalytic domain) (Homo sapiens (Human), UniProt O60674); assay: biochemical
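Note: biochemical JAK kinase assay with HTRF detection.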

Chain of JAK2 (recombinant purified GST-tagged catalytic domain) (O60674 849-1124): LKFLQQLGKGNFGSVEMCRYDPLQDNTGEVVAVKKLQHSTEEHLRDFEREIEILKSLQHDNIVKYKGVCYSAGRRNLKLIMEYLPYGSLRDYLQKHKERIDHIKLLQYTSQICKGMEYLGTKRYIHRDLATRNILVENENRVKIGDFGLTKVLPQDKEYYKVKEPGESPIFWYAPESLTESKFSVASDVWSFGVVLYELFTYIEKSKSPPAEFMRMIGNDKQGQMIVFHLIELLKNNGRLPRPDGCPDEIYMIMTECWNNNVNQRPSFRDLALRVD

Going from `CN(C)[C@H]1CC[C@H](n2cc(C(N)=O)c(Nc3ccc(OC(F)(F)F)cc3)n2)[C@@H](C#N)C1` (single isomer, unassigned) [Example 28-86, 1-[(1S,2S,4S or 1R,2R,4R)-2-cyano-4-(dimethylamino)cyclohexyl]-3-{[4-(trifluoromethoxy)phenyl]amino}-1H-pyrazole-4-carboxamide] to `CN(C)[C@H]1CC[C@@H](n2cc(C(N)=O)c(Nc3ccc(C(F)(F)F)nc3)n2)[C@H](C#N)C1` (single isomer, unassigned) [Example 28-27, 1-[(1R,2R,4S or 1S,2S,4R)-2-cyano-4-(dimethylamino)cyclohexyl]-3-{[6-(trifluoromethyl)pyridin-3-yl]amino}-1H-pyrazole-4-carboxamide], the IC50 rises from 18 nM to 800 nM (44-fold).

First: N#C[C@H]1C[C@H](NCc2c(F)cccc2F)CC[C@@H]1n1cc(C(N)=O)c(Nc2ccc(C(F)(F)F)cc2)n1 (single isomer, unassigned) [Example 30-13, 1-{(1S,2S,4R or 1R,2R,4S)-2-cyano-4-[(2,6-difluoro-benzyl)amino]cyclohexyl}-3-{[4-(trifluoromethyl)phenyl]amino}-1H-pyrazole-4-carboxamide]
Second: CC1(CN[C@@H]2CC[C@H](n3cc(C(N)=O)c(Nc4ccc(C(F)(F)F)cc4)n3)[C@@H](C#N)C2)COC1 (single isomer, unassigned) [Example 28-16, 1-[(1S,2S,4R or 1R,2R,4S)-2-cyano-4-{[(3-methyloxetan-3-yl)methyl]amino}cyclohexyl]-3-{[4-(trifluoromethyl)phenyl]amino}-1H-pyrazole-4-carboxamide]
The IC50 of the first is 24-fold higher: 500 nM for the first, 21 nM for the second. The second is the more potent here.

`N#C[C@H]1CCCC[C@@H]1n1cc(C(N)=O)c(Nc2ccc(OC(F)F)nc2)n1` (racemic) [Example 17-102, 1-[(1S,2S and 1R,2R)-2-cyanocyclohexyl]-3-{[6-(difluoromethoxy)pyridin-3-yl]amino}-1H-pyrazole-4-carboxamide] and `N#C[C@H]1CCCC[C@@H]1n1cc(C(N)=O)c(Nc2cccnc2)n1` (racemic) [Example 17-13, 1-[(1S,2S and 1R,2R)-2-cyanocyclohexyl]-3-(pyridin-3-ylamino)-1H-pyrazole-4-carboxamide] are within 1.5-fold of each other in IC50: 39 nM for the first, 36 nM for the second.

Going from `CC1(C)CN([C@@H]2CC[C@H](n3cc(C(N)=O)c(Nc4ccc(C(F)(F)F)cc4)n3)[C@@H](C#N)C2)C1` (single isomer, unassigned) [Example 28-203, 1-[(1S,2S,4R or 1R,2R,4S)-2-cyano-4-(3,3-dimethylazetidin-1-yl)cyclohexyl]-3-{[4-(trifluoromethyl)phenyl]amino}-1H-pyrazole-4-carboxamidc] to `CC1(C)CN([C@@H]2CC[C@H](n3cc(C(N)=O)c(Nc4ccc([C@H](O)C(F)(F)F)cc4)n3)[C@@H](C#N)C2)C1` (single isomer, unassigned) [Example 28-44, 1-[(1S,2S,4R or 1R,2R,4S)-2-cyano-4-(3,3-dimethylazetidin-1-yl)cyclohexyl]-3-({4-[(1S or 1R)-2,2,2-trifluoro-1-hydroxyethyl]phenyl}amino)-1H-pyrazole-4-carboxamide], the IC50 falls from 285 nM to 11 nM (26-fold). The second is the more potent here.

Compared with `CC(C)(C)OC(=O)NC1CC[C@H](C#N)C(n2cc(C(N)=O)c(Nc3ccc(F)cc3)n2)C1` (mixture of isomers) [Example 11-3, tert-butyl [(1R,3S,4S and 1S,3R,4R) or (1S,3S,4S and 1R,3R,4R)-3-{4-carbamoyl-3-[(4-fluorophenyl)amino]-1H-pyrazol-1-yl}-4-cyanocyclohexyl]carbamate], `N#C[C@H]1C[C@@H](OCC2CC2)CC[C@H]1n1cc(C(N)=O)c(Nc2ccc(F)cc2)n1` (single isomer, unassigned) [Example 26-11, 1-[(1R,2S,4S or 1S,2R,4R)-2-cyano-4-(cyclopropylmethoxy)cyclohexyl]-3-[(4-fluorophenyl)amino]-1H-pyrazole-4-carboxamide] is higher in IC50: 49 nM for the first, over 1500 nM for the second. The first is the more potent here.

`CN[C@@H]1CC[C@H](n2cc(C(N)=O)c(Nc3ccc(Cl)c(F)c3)n2)[C@@H](C#N)C1` (single isomer, unassigned) [Example 28-39, 3-[(4-chloro-3-fluorophenyl)amino]-1-[(1S,2S,4R or 1R,2R,4S)-2-cyano-4-(methylamino)cyclohexyl]-1H-pyrazole-4-carboxamide] and `N#C[C@H]1C[C@@H](NCC(F)F)CC[C@@H]1n1cc(C(N)=O)c(Nc2ccnc(F)c2)n1` (single isomer, unassigned) [Example 28-115, 1-{(1S,2S,4S or 1R,2R,4R)-2-cyano-4-[(2,2-difluoroethyl)amino]cyclohexyl}-3-[(2-fluoropyridin-4-yl)amino]-1H-pyrazole-4-carboxamide] are within 1.5-fold of each other in IC50: 35 nM for the first, 33 nM for the second.

Going from `CS(=O)(=O)c1ccc(Nc2nn([C@H]3CC[C@H](N4CC5(CCC5)C4)C[C@@H]3C#N)cc2C(N)=O)cc1` (single isomer, unassigned) [Example 28-130, 1-[(1S,2S,4S or 1R,2R,4R)-4-(2-azaspiro[3.3]hept-2-yl)-2-cyanocyclohexyl]-3-{[4-(methylsulfonyl)phenyl]amino}-1H-pyrazole-4-carboxamide] to `CS(=O)(=O)c1ccc(Nc2nn([C@H]3CC[C@@H](N4CC5(CCC5)C4)C[C@@H]3C#N)cc2C(N)=O)cc1` (single isomer, unassigned) [Example 28-145, 1-[(1S,2S,4R or 1R,2R,4S)-4-(2-azaspiro[3.3]hept-2-yl)-2-cyanocyclohexyl]-3-{[4-(methylsulfonyl)phenyl]amino}-1H-pyrazole-4-carboxamide], the IC50 rises from 5 nM to 15 nM (3-fold).

Compared with `N#C[C@H]1C[C@@H](OC(=O)Nc2ccccc2)CCC1n1cc(C(N)=O)c(Nc2ccc(F)cc2)n1` (mixture of isomers) [Example 34-1, (1S,3S,4S and 1R,3R,4R)-4-{4-Carbamoyl-3-[(4-fluorophenyl)amino]-1H-pyrazol-1-yl}-3-cyanocyclohexyl phenylcarbamate], `CC(C)(C)N[C@H]1CCC(n2cc(C(N)=O)c(Nc3ccccc3)n2)[C@@H](C#N)C1` (single isomer, unassigned) [Example 28-215, 1-[(1S,2S,4S or 1R,2R,4R)-4-(tert-butylamino)-2-cyanocyclohexyl]-3-(phenylamino)-1H-pyrazole-4-carboxamide] is 3.8-fold lower in IC50: 107 nM for the first, 28 nM for the second. The second is the more potent here.

Compared with `N#C[C@H]1C[C@H](O)CC[C@@H]1n1cc(C(N)=O)c(Nc2ccc(C3CC3)cc2)n1` (single isomer, unassigned) [Example 25-14, 1-[(1S,2S,4R or 1R,2R,4S)-2-cyano-4-hydroxycyclohexyl]-3-[(4-cyclopropylphenyl)amino]-1H-pyrazole-4-carboxamide], `N#C[C@H]1CC(NC2CC2)CCC1n1cc(C(N)=O)c(Nc2ccc(S(=O)(=O)C(F)(F)F)cc2)n1` (mixture of isomers) [Example 27-10, 1-[(1S,2S and 1R,2R)-2-cyano-4-(cyclopropylamino)cyclohexyl]-3-({4-[(trifluoromethyl)sulfonyl]phenyl}amino)-1H-pyrazole-4-carboxamide] is 3.6-fold lower in IC50: 25 nM for the first, 7 nM for the second.

Going from `N#C[C@H]1CC(N2CCC[C@H]2CF)CC[C@@H]1n1cc(C(N)=O)c(Nc2ccc(S(=O)(=O)C(F)(F)F)cc2)n1` (single isomer, unassigned) [Example 28-157, 1-{(1S,2S or 1R,2R)-2-cyano-4-[(2S)-2-(fluoromethyl)pyrrolidin-1-yl]cyclohexyl}-3-({4-[(trifluoro-methyl)sulfonyl]phenyl}amino)-1H-pyrazole-4-carboxamide] to `N#C[C@H]1CC(N2CCC[C@@H]2CF)CC[C@@H]1n1cc(C(N)=O)c(Nc2ccc(S(=O)(=O)C(F)(F)F)cc2)n1` (single isomer, unassigned) [Example 28-156, 1-{(1S,2S or 1R,2R)-2-cyano-4-[(2R)-2-(fluoromethyl)pyrrolidin-1-yl]cyclohexyl}-3-({4-[(trifluoro-methyl)sulfonyl]phenyl}amino)-1H-pyrazole-4-carboxamide], the IC50 falls from 28 nM to 14 nM (2-fold). The second is the more potent here.

Going from `N#C[C@H]1C[C@H](N2CCC2)CC[C@@H]1n1cc(C(N)=O)c(Nc2ccc([C@@H](O)C(F)(F)F)cc2)n1` (single isomer, unassigned) [Example 28-85, 1-[(1S,2S,4R or 1R,2R,4S)-4-azetidin-1-yl-2-cyanocyclohexyl]-3-({4-[(1R or 1S)-2,2,2-trifluoro-1-hydroxyethyl]phenyl}amino)-1H-pyrazole-4-carboxamide] to `N#C[C@H]1C[C@@H](NCC2CC2)CC[C@@H]1n1cc(C(N)=O)c(Nc2ccc(S(=O)(=O)C(F)(F)F)cc2)n1` (single isomer, unassigned) [Example 28-172, 1-{(1S,2S,4S or 1R,2R,4R)-2-cyano-4-[(cyclopropylmethyl)amino]cyclo-hexyl}-3-({4-[(trifluoromethyl)sulfonyl]phen-yl}amino)-1H-pyrazolc-4-carboxamide], the IC50 falls from 17 nM to 8 nM (2.1-fold).

First: N#C[C@H]1C[C@H](NCC(F)F)CC[C@@H]1n1cc(C(N)=O)c(Nc2ccnc(F)c2)n1 (single isomer, unassigned) [Example 28-106, 1-{(1S,2S,4R or 1R,2R,4S)-2-cyano-4-[(2,2-difluoroethyl)amino]cyclohexyl}-3-[(2-fluoropyridin-4-yl)amino]-1H-pyrazole-4-carboxamide]
Second: C[C@H](N[C@H]1CC[C@H](n2cc(C(N)=O)c(Nc3ccc(C(F)(F)F)nc3)n2)[C@@H](C#N)C1)C1CC1 (single isomer, unassigned) [Example 28-8, 1-[(1S,2S,4S or 1R,2R,4R)-2-cyano-4-{[(1S)-1-cyclopropylethyl]amino}cyclo-hexyl]-3-{[6-(trifluoromethyl)pyridin-3-yl]amino}-1H-pyrazole-4-carboxamide]
The IC50 of the first is 3.8-fold lower: 53 nM for the first, 200 nM for the second. The first is the more potent here.

Compared with `N#C[C@H]1CCCC[C@@H]1n1cc(C(N)=O)c(Nc2ccc(S(=O)(=O)Nc3ccc4cccnc4c3)cc2)n1` (single isomer, unassigned) [Example 17-94, 1-[(1R,2R or 1S,2S)-2-cyanocyclohexyl]-3-{[4-(quinolin-7-ylsulfamoyl)phenyl]amino}-1H-pyrazole-4-carboxamide], `CS(=O)(=O)c1ccc(Nc2nn(C3CCCC[C@@H]3C#N)cc2C(N)=O)cc1F` (mixture of isomers) [Example 17-8, 1-[(1S,2S and 1R,2R)-2-cyanocyclohexyl]-3-{[3-fluoro-4-(methylsulfonyl)phenyl]amino}-1H-pyrazole-4-carboxamide] is 3.3-fold lower in IC50: 33 nM for the first, 10 nM for the second.
